Data published in PubChem BioAssay AID1963825 (Molecular Pharmacology Branch, DTP, NCI, 2024).

Experiment: Anticancer human tumor 997537-175-T-J1-PDC patient-derived colon adenocarcinoma cell line growth inhibition [POLQ]
Settings: 997537-175-T-J1-PDC complex spheroid viability, combination with POLQ inhibitors; for IC50: curve of first compound; for viability, T/C: stronger effect = lower value
Procedure, shortened: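 Three-cell-type spheroids modelling solid tumor plus stroma served as the readout system; POL inhibitors were tested individually and in combination, concentration ranges set by clinical Cmax where known.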

[1] = second compound 0.0316 µM, first compound 0.0316 µM
[2] = second compound 0.0316 µM, first compound 0.1 µM
[3] = second compound 0.0316 µM, first compound 0.316 µM
[4] = second compound 0.0316 µM, first compound 1 µM
[5] = second compound 0.0316 µM, first compound 3.16 µM
[6] = second compound 0.0316 µM, first compound 10 µM
[7] = second compound 0.1 µM, first compound 0.0316 µM
[8] = second compound 0.1 µM, first compound 0.1 µM
[9] = second compound 0.1 µM, first compound 0.316 µM
[10] = second compound 0.1 µM, first compound 1 µM
[11] = second compound 0.1 µM, first compound 3.16 µM
[12] = second compound 0.1 µM, first compound 10 µM
[13] = second compound 0.316 µM, first compound 0.0316 µM
[14] = second compound 0.316 µM, first compound 0.1 µM
[15] = second compound 0.316 µM, first compound 0.316 µM
[16] = second compound 0.316 µM, first compound 1 µM
[17] = second compound 0.316 µM, first compound 3.16 µM
[18] = second compound 0.316 µM, first compound 10 µM
[19] = second compound 1 µM, first compound 0.0316 µM
[20] = second compound 1 µM, first compound 0.1 µM
[21] = second compound 1 µM, first compound 0.316 µM
[22] = second compound 1 µM, first compound 1 µM
[23] = second compound 1 µM, first compound 3.16 µM
[24] = second compound 1 µM, first compound 10 µM
[25] = second compound 3.16 µM, first compound 0.0316 µM
[26] = second compound 3.16 µM, first compound 0.1 µM
[27] = second compound 3.16 µM, first compound 0.316 µM
[28] = second compound 3.16 µM, first compound 1 µM
[29] = second compound 3.16 µM, first compound 3.16 µM
[30] = second compound 3.16 µM, first compound 10 µM
[31] = second compound 10 µM, first compound 0.0316 µM
[32] = second compound 10 µM, first compound 0.1 µM
[33] = second compound 10 µM, first compound 0.316 µM
[34] = second compound 10 µM, first compound 1 µM
[35] = second compound 10 µM, first compound 3.16 µM
[36] = second compound 10 µM, first compound 10 µM
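Also: luminescence signal used as a surrogate for viable cells; spheroids exposed to drugs for seven days before readout.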

COc1ccc([C@@H](O)c2cc(-c3ncnc4cc(N5CCOCC5)ccc34)c(F)cc2Cl)nn1 + COC1C(OC(N)=O)C(O)C(Oc2ccc3c(O)c(NC(=O)c4ccc(O)c(CC=C(C)C)c4)c(=O)oc3c2C)OC1(C)C
IC50 (second compound 0.0316 µM): > 10 µM | IC50 (second compound 0.1 µM): > 10 µM | IC50 (second compound 0.316 µM): > 10 µM | IC50 (second compound 1 µM): > 10 µM | IC50 (second compound 3.16 µM): > 10 µM | IC50 (second compound 10 µM): > 10 µM | viability, T/C [1]: 116% | viability, T/C [2]: 115% | viability, T/C [3]: 110% | viability, T/C [4]: 92% | viability, T/C [5]: 105% | viability, T/C [6]: 87.7% | viability, T/C [7]: 109% | viability, T/C [8]: 103% | viability, T/C [9]: 95.3% | viability, T/C [10]: 97.5% | viability, T/C [11]: 94.4% | viability, T/C [12]: 98.5% | viability, T/C [13]: 107% | viability, T/C [14]: 103% | viability, T/C [15]: 92.5% | viability, T/C [16]: 96.8% | viability, T/C [17]: 115% | viability, T/C [18]: 81.7% | viability, T/C [19]: 98% | viability, T/C [20]: 106% | viability, T/C [21]: 109% | viability, T/C [22]: 92.4% | viability, T/C [23]: 97.2% | viability, T/C [24]: 77.4% | viability, T/C [25]: 106% | viability, T/C [26]: 108% | viability, T/C [27]: 109% | viability, T/C [28]: 105% | viability, T/C [29]: 93.3% | viability, T/C [30]: 83.8% | viability, T/C [31]: 111% | viability, T/C [32]: 103% | viability, T/C [33]: 118% | viability, T/C [34]: 83.6% | viability, T/C [35]: 115% | viability, T/C [36]: 114%

COc1ccc([C@@H](O)c2cc(-c3ncnc4cc(N5CCOCC5)ccc34)c(F)cc2Cl)nn1 + Cc1cccc(N(C)C(=O)C2C(O)CCN2c2nc(C)cc(C(F)(F)F)c2C#N)c1
IC50 (second compound 0.0316 µM): > 10 µM | IC50 (second compound 0.1 µM): > 10 µM | IC50 (second compound 0.316 µM): > 10 µM | IC50 (second compound 1 µM): > 10 µM | IC50 (second compound 3.16 µM): > 10 µM | IC50 (second compound 10 µM): > 10 µM | viability, T/C [1]: 102% | viability, T/C [2]: 108% | viability, T/C [3]: 103% | viability, T/C [4]: 108% | viability, T/C [5]: 101% | viability, T/C [6]: 84.3% | viability, T/C [7]: 92.3% | viability, T/C [8]: 111% | viability, T/C [9]: 99.8% | viability, T/C [10]: 106% | viability, T/C [11]: 101% | viability, T/C [12]: 77.7% | viability, T/C [13]: 104% | viability, T/C [14]: 109% | viability, T/C [15]: 106% | viability, T/C [16]: 104% | viability, T/C [17]: 95.3% | viability, T/C [18]: 82.9% | viability, T/C [19]: 98.5% | viability, T/C [20]: 102% | viability, T/C [21]: 91.7% | viability, T/C [22]: 109% | viability, T/C [23]: 85.7% | viability, T/C [24]: 69.7% | viability, T/C [25]: 80.8% | viability, T/C [26]: 93.4% | viability, T/C [27]: 110% | viability, T/C [28]: 106% | viability, T/C [29]: 88.8% | viability, T/C [30]: 72.7% | viability, T/C [31]: 101% | viability, T/C [32]: 109% | viability, T/C [33]: 110% | viability, T/C [34]: 112% | viability, T/C [35]: 107% | viability, T/C [36]: 69.8%
